Measurements: paper PMC7716890 (Clinical Pharmacokinetics, 2020)
“Also recorded” adds a separate entry of the source. Read-outs that look alike come from different tables or passages of the source.

Assays:
[1] = Plasma concentrations of the transporter inhibitors around expected time to Cmax; assay type: in vivo, healthy male subjects; settings: cimetidine 400 mg multiple doses; current study
[2] = for AUC0–tz Ratio T/R / Cmax Ratio T/R: cocktail + cimetidine vs cocktail alone
[3] = cited from earlier work
[4] = for AUC0–tz Ratio T/R / Cmax Ratio T/R: cocktail + probenecid vs cocktail alone
[5] = Safety and tolerability assessment; assay type: in vivo, healthy male subjects; settings: one subject, upon administration of probenecid 1000 mg
[6] = cocktail (metformin 10 mg) with cimetidine vs cocktail alone
[7] = metformin 500 mg with cimetidine vs alone
[8] = cocktail + rifampin vs cocktail alone
[9] = cocktail + verapamil vs cocktail alone
[10] = cocktail with single-dose rifampin vs cocktail alone
[11] = cocktail with single-dose verapamil vs cocktail alone
[12] = cocktail (furosemide 1 mg) with probenecid vs cocktail alone

CN/C(=N/CCSCc1nc[nH]c1C)NC#N [Cimetidine, cimetidine]
maximum plasma concentrations [1]: 4.24 to 11.1 µM

CN(C)C(=N)N=C(N)N [Metformin, metformin]
increase of AUC0–tz [2, 6]: 31% | increase of Cmax [2, 6]: 23% | increase of AUC0–tz [2, 7]: 51% | increase of Cmax [2, 7]: 41% | increase in systemic exposure ([3]; metformin with cimetidine, previous findings): 45–70% | increase in exposure ([3]; metformin with rifampin coadministration): 10%

C[C@H]1O[C@@H](O[C@H]2[C@@H](O)C[C@H](O[C@H]3[C@@H](O)C[C@H](O[C@H]4CC[C@@]5(C)[C@H](CC[C@@H]6[C@@H]5C[C@@H](O)[C@]5(C)[C@@H](C7=CC(=O)OC7)CC[C@]65O)C4)O[C@@H]3C)O[C@@H]2C)C[C@H](O)[C@@H]1O [Digoxin, digoxin]
increase of AUC0–tz [2, 6]: 26% | AUC0–tz Ratio T/R [2]: 125.61% | Cmax Ratio T/R [2]: 122.03% | AUC0–tz Ratio T/R [8]: 131.41% | Cmax Ratio T/R [8]: 218.26% | AUC0–tz Ratio T/R [9]: 100.70% | Cmax Ratio T/R [9]: 121.64% | increase of AUC0–tz [10]: 31% | increase of Cmax [10]: 118% | effect on AUC0–tz [11]: unaltered; also recorded: unchanged | effect on CLR [11]: unchanged | increase of Cmax [11]: 22% | AUC0–tz Ratio T/R [4]: 106.78% | Cmax Ratio T/R [4]: 87.07% | effect of probenecid on systemic exposure ([4]; cocktail with probenecid vs cocktail alone): no relevant effect | increase in exposure ([3]; digoxin with verapamil administered over multiple days): 44–77%

CC(C)c1nc(N(C)S(C)(=O)=O)nc(-c2ccc(F)cc2)c1/C=C/[C@@H](O)C[C@@H](O)CC(=O)O [Rosuvastatin, rosuvastatin]
AUC0–tz Ratio T/R [2]: 107.42% | Cmax Ratio T/R [2]: 116.88% | effect of cimetidine on systemic exposure ([2]; cocktail with cimetidine vs cocktail alone): no effect | AUC0–tz Ratio T/R [8]: 348.06% | Cmax Ratio T/R [8]: 1125.10% | AUC0–tz Ratio T/R [9]: 113.40% | Cmax Ratio T/R [9]: 115.39% | increase of AUC0–tz [10]: 248% | increase of Cmax [10]: 1025% | effect of verapamil on systemic exposure [11]: no effect | decrease of CLR [4, 12]: 78% | increase of AUC0–tz [4, 12]: 123% | increase of Cmax [4, 12]: 328% | AUC0–tz Ratio T/R [4]: 223.24% | Cmax Ratio T/R [4]: 428.23%

NS(=O)(=O)c1cc(C(=O)O)c(NCc2ccco2)cc1Cl [Furosemide, furosemide]
decrease of CLR [4, 12]: 74% | decrease of CLR ([4]; furosemide 40 mg with probenecid vs alone): 76%

CCCN(CCC)S(=O)(=O)c1ccc(C(=O)O)cc1 [Probenecid, probenecid]
AEs leading to premature withdrawal from treatment [5]: nausea, dizziness
